Experimental data from patent US12595253B2, “Benzamides of pyrazolylamino-pyrimidinyl derivatives, and compositions and methods thereof” (LYNK PHARMACEUTICALS CO. LTD., priority 2019, dated 2026).

What was measured:
CYP2D6 = biological target: T1, CYP2D6 (Homo sapiens, UniProt P10635); experiment: CYPs inhibition in pooled human liver microsomes, probe substrate Dextromethorphan; format: in vitro ADME
T1 construct: 0.2 mg/mL human liver microsomes was pre-incubated in 180 μL reaction mixture; from tissue; host or cells: pooled human liver microsomes
T1 sequence (P10635 whole entry): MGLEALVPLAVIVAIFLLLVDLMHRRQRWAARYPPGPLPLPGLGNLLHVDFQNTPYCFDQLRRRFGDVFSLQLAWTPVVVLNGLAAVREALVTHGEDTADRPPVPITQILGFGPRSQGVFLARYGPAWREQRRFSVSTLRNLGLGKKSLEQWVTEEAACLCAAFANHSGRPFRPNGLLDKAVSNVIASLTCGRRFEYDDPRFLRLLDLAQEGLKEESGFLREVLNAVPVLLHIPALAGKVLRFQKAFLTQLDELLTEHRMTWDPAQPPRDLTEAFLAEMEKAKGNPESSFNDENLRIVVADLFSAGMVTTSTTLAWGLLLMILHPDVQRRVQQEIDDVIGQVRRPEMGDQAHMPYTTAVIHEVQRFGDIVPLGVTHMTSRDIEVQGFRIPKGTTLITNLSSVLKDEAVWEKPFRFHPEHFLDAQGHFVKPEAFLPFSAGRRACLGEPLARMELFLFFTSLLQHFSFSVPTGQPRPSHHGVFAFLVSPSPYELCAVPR
Outline: (§1)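 Test articles pre-incubated 10 min at 37 °C with a probe-substrate cocktail in pooled human liver microsomes. Reaction then started with NADPH and run 10 min. Metabolites quantified by LC-MS/MS; IC50 from 3-parameter logistic fit of % control activity.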

CYP3A4 = biological target: T2, CYP3A4 (Homo sapiens, UniProt P08684); experiment: CYPs inhibition in pooled human liver microsomes, probe substrate Midazolam; format: in vitro ADME
T2 construct: 0.2 mg/mL human liver microsomes was pre-incubated in 180 μL reaction mixture; from tissue; host or cells: pooled human liver microsomes
T2 sequence (P08684 whole entry): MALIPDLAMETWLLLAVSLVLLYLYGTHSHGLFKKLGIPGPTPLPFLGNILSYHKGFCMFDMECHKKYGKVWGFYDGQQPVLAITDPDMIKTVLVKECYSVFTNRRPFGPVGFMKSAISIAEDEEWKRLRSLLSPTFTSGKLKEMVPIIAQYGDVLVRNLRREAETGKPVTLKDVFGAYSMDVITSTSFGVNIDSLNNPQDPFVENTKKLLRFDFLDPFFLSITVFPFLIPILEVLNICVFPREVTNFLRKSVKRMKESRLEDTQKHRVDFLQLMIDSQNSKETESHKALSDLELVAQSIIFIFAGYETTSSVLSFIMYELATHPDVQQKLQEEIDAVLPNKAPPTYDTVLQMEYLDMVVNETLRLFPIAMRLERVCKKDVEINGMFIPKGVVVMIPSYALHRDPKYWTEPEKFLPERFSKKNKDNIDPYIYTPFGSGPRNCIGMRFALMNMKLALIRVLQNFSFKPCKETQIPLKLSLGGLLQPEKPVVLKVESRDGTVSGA
Outline: as §1

[1] = Liver microsomes study, Phase I stability (RLM); format: in vitro ADME, rat; details: pH 7.4; rat liver microsomes 0.5 mg/mL, 1 μM test article; read-out: RLM Clint
Outline: (§2)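 Phase I turnover was followed by LC/MS/MS of parent compound remaining at 0, 10, 30 and 90 min in NADPH-fortified rat or human microsomes, with cold acetonitrile quench. Half-life and intrinsic clearance were derived from the log-linear depletion slope and the inverse protein concentration.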

[2] = Liver microsomes study, Phase I stability (HLM); format: in vitro ADME, human; details: pH 7.4; human liver microsomes 0.5 mg/mL, 1 μM test article; read-out: HLM Clint
Outline: as §2

FLT3 = biological target: T3, FLT3 (Homo sapiens, UniProt P36888); experiment: FLT3 microfluidic kinase assay; format: biochemical
T3 construct: purchased Carna Biosciences
T3 sequence (P36888 27-993): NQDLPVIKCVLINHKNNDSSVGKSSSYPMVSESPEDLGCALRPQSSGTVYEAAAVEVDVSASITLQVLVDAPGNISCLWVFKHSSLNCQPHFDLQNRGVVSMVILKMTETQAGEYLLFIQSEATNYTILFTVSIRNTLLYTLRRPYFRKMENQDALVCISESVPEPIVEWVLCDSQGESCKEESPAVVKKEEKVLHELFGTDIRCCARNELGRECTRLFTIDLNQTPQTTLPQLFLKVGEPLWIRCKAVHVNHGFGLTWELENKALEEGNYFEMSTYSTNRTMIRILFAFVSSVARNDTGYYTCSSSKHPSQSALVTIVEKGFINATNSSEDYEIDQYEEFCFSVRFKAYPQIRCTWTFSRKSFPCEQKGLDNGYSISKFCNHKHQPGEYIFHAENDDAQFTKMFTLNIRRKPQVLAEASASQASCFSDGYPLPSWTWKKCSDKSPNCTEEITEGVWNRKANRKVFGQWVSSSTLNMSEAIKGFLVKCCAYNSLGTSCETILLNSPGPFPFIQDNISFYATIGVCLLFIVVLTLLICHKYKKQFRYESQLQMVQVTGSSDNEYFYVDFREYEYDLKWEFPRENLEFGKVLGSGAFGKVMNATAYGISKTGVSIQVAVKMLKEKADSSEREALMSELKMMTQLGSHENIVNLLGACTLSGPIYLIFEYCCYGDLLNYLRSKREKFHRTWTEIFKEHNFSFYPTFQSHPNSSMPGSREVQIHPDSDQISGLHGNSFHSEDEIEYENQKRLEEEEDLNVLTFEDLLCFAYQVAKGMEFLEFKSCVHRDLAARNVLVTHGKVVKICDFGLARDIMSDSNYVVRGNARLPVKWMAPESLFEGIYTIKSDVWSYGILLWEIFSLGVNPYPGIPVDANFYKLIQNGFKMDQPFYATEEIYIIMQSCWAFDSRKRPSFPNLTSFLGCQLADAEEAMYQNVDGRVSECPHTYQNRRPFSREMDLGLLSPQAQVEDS
Protocol: Compounds were tested against FLT3, FLT3ITD and FLT3D835Y.
Assay Formats: FLT3 activity was determined in the reaction buffer 50 mM HEPES, 10 mM MgCl2 and 2 mM DTT by a microfluidic assay. The phosphorylation of a FAM labeled peptide substrate was monitored in the Caliper EZ Reader II (Perkin Elmer). The assay condition for each batch of enzyme (Carna Biosciences) was optimized to obtain 10% conversion rate of peptide substrate.
The test compounds were dissolved in DMSO to a stock concentration of 10 mM. 3-fold serially diluted compounds with top concentration of 5 μM were pre-incubated with FLT3, FLT3ITD or FLT3D835Y for 10 min at ambient temperature. The final DMSO concentration of assay mixture was 1%. […] The reaction was stopped by adding 50 mM EITA. The reaction time for FLT3, FLT3ITD and FLT3D8335Y was 30 min, 40 min and 40 min, respectively.
And the well without compound but with equivalent DMSO was defined as no inhibition. The percent inhibition was calculated by the following formula. % Inhibition=(Conversionmax−Conversionsample)/(Conversionmax−Conversionmin)*100 • Conversionmax means the conversion rate in the positive well without addition of compound • Conversionmin means the conversion rate in the well without addition of enzyme • Conversionsample means the conversion rate of test compounds
The dose-response (percent inhibition) curve was plotted and IC50 values were determined by GraphPad software.

| Structure (SMILES) | IC50 (CYP2D6) [µM] | IC50 (CYP3A4) [µM] | microsomal CLint at 1 μM [1] [µL/min/mg] | microsomal CLint at 1 μM [2] [µL/min/mg] | IC50 (FLT3) [µM] |
| --- | --- | --- | --- | --- | --- |
| N#CCNC(=O)c1ccc(-c2nc(Nc3cnn(C4CC4)c3)ncc2Cl)cc1 [Example 95, 4-(5-Chloro-2-((1-cyclopropyl-1H-pyrazol-4-yl)amino)pyrimidin-4-yl)-N-(cyanomethyl)benzamide] |  |  | 31.1 | 8.84 | 0.00535 |
| Cn1cc(Nc2ncc(Cl)c(-c3ccc(C(=O)NCC#N)cc3)n2)cn1 [Example 34, 4-(5-Chloro-2-((1-methyl-1H-pyrazol-4-yl)amino)pyrimidin-4-yl)-N-(cyanomethyl)benzamide] |  |  | 31.6 | 12.3 | 0.0109 |
| Cc1cnc(Nc2cnn(CC#N)c2)nc1-c1ccc(C(=O)NCC#N)cc1 [Example 4, N-(Cyanomethyl)-4-(2-((1-(cyanomethyl)-1H-pyrazol-4-yl)amino)-5-methylpyrimidin-4-yl)benzamide] | > 50 | > 50 | 16.4 | 1.22 |  |
| Cc1cnc(Nc2cnn(C3CCN(C(=O)CO)CC3)c2)nc1-c1ccc(C(=O)N[C@@H](C)C#N)cc1 [Example 119, (S)—N-(1-cyanoethyl)-4-(2-((1-(1-(2-hydroxyacetyl)piperidin-4-yl)-1H-pyrazol-4-yl)amino)-5-methylpyrimidin-4-yl)benzamide] | > 50 | > 50 |  |  |  |
| Cc1cnc(Nc2cnn(C)c2)nc1-c1ccc(C(=O)NC(C)C)cc1 [Example 223, N-isopropyl-4-(5-methyl-2-((1-methyl-1H-pyrazol-4-yl)amino)pyrimidin-4-yl)benzamide] |  |  |  |  | 1.1 |
| CC[C@@H](C#N)NC(=O)c1ccc(-c2nc(Nc3cnn(C4CCNCC4)c3)ncc2Cl)cc1 [Example 183, (S)-4-(5-chloro-2-((1-(piperidin-4-yl)-1H-pyrazol-4-yl)amino)pyrimidin-4-yl)-N-(1-cyanopropyl)benzamide] | 42 | 18.2 | 18.9 | 12 |  |
| CCNC(=O)c1ccc(-c2nc(Nc3cnn(C)c3)ncc2C)cc1 [Example 222, N-ethyl-4-(5-methyl-2-((1-methyl-1H-pyrazol-4-yl)amino)pyrimidin-4-yl)benzamide] |  |  |  |  | 1.89 |
| Cc1cnc(Nc2cnn(C3CC(C)(C)OC(C)(C)C3)c2)nc1-c1ccc(C(=O)NCC#N)cc1 [Example 113, N-(cyanomethyl)-4-(5-methyl-2-((1-(2,2,6,6-tetramethyltetrahydro-2H-pyran-4-yl)-1H-pyrazol-4-yl)amino)pyrimidin-4-yl)benzamide] | 35.4 | 19.6 | 73.9 | 203 |  |
| CNC(=O)c1ccc(-c2nc(Nc3cnn(C)c3)ncc2C)cc1 [Example 10, N-Methyl-4-(5-methyl-2-((1-methyl-1H-pyrazol-4-yl)amino)pyrimidin-4-yl)benzamide] |  |  |  |  | 1.2 |

Second part, the molecule after the results:

| IC50 (CYP2D6) [µM] | IC50 (CYP3A4) [µM] | microsomal CLint at 1 μM [1] [µL/min/mg] | microsomal CLint at 1 μM [2] [µL/min/mg] | IC50 (FLT3) [µM] | Structure (SMILES) |
| --- | --- | --- | --- | --- | --- |
| > 50 | 41.5 | 26 |  |  | C[C@@H](C#N)NC(=O)c1ccc(-c2nc(Nc3cnn(C4CCNCC4)c3)ncc2Cl)cc1 [Example 165, (S)-4-(5-chloro-2-((1-(piperidin-4-yl)-1H-pyrazol-4-yl)amino)pyrimidin-4-yl)-N-(1-cyanoethyl)benzamide] |
| > 50 | > 50 | 78.5 | 11.4 |  | CC[C@@H](C#N)NC(=O)c1ccc(-c2nc(Nc3cnn(C4CCN(C)CC4)c3)ncc2C)cc1 [Example 184, (S)—N-(1-Cyanopropyl)-4-(5-methyl-2-((1-(1-methylpiperidin-4-yl)-1H-pyrazol-4-yl)amino)pyrimidin-4-yl)benzamide] |
| > 50 | > 50 | 101 | 15 |  | C[C@@H](C#N)NC(=O)c1ccc(-c2nc(Nc3cnn(C4CCN(C)CC4)c3)ncc2Cl)cc1 [Example 43, (S)-4-(5-Chloro-2-((1-(1-methylpiperidin-4-yl)-1H-pyrazol-4-yl)amino)pyrimidin-4-yl)-N-(1-cyanoethyl)benzamide] |
|  |  | 28.4 | 21.9 | 0.0236 | C[C@@H](C#N)NC(=O)c1ccc(-c2nc(Nc3cnn(C)c3)ncc2Cl)cc1 [Example 125, (S)-4-(5-chloro-2-((1-methyl-1H-pyrazol-4-yl)amino)pyrimidin-4-yl)-N-(1-cyanoethyl)benzamide] |
|  |  |  |  | 0.00336 | CC[C@@H](C#N)NC(=O)c1ccc(-c2nc(Nc3cnn(C4CC4)c3)ncc2Cl)cc1 [Example 61, (S)-4-(5-chloro-2-((1-cyclopropyl-1H-pyrazol-4-yl)amino)pyrimidin-4-yl)-N-(1-cyanopropyl)benzamide] |
|  |  |  |  | 0.00673 | C[C@@H](C#N)NC(=O)c1ccc(-c2nc(Nc3cnn(C4CC4)c3)ncc2Cl)cc1 [Example 111, (S)-4-(5-Chloro-2-((1-cyclopropyl-1H-pyrazol-4-yl)amino)pyrimidin-4-yl)-N-(1-cyanoethyl)benzamide] |
